Results: US12060349B2, “Glucosylceramide synthase inhibitors” (Genzyme Corporation, priority 2012, dated 2024)

Assays:
[1] = target: T1, glucosylceramide synthase (Homo sapiens, UniProt Q16739); test: microsomal assay measuring conversion of ceramide to glucosylceramide by HPLC (GCS IC50); type: biochemical; conditions: concentration causing 50% inhibition of glucosylceramide synthase activity
T1 construct: Microsomes were isolated from A375 human melanoma cells; endogenous in cells; host or cells: A375 human melanoma cells (microsomal fraction, 100,000 g pellet)
T1 sequence (Q16739 1-394): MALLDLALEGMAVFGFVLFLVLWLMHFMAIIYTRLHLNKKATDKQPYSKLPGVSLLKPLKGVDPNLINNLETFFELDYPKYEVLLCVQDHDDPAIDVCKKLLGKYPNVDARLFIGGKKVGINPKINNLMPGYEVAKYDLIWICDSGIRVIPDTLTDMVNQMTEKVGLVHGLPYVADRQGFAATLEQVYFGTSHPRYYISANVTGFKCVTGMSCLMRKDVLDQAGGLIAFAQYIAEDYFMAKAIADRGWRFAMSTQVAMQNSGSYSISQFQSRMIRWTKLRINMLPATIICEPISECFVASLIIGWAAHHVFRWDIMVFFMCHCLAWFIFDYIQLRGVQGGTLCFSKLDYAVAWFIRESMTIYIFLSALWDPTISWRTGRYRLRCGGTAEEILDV
Outline: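 IC50 is the compound concentration halving glucosylceramide synthase activity. Activity was measured in microsomes, with HPLC quantifying glucosylceramide formed from ceramide.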

[2] = system: GM3 expression on the cell surface, B16 mouse melanoma cells; test: cell based phenotypic assay, cell surface GM3 by antibody mediated immunofluorescence, B16 (GM3 B16 IC50); conditions: Mus musculus, B16 mouse melanoma cells; 50% inhibition of GM3 expression on the cell surface; read-out: GM3 B16 IC50
Outline: (§1)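 B16 mouse and C32 human melanoma cells; cell-surface GM3 measured by antibody-mediated immunofluorescence, giving IC50.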

[3] = system: GM3 expression on the cell surface, C32 human melanoma cells; test: cell based phenotypic assay, cell surface GM3 by antibody mediated immunofluorescence, C32 (GM3 C32 IC50); conditions: Homo sapiens, C32 human melanoma cells; 50% inhibition of GM3 expression on the cell surface; read-out: GM3 C32 IC50
Outline: as §1

B16 mouse melanoma cells = test: cell viability in the B16 cell-based assay (Viability, B16 IC50); conditions: Mus musculus, B16, B16 cells; concentration causing 50% cell death; values greater than 10 represent a lack of cell death; read-out: Viability, B16 IC50
Outline: (§2)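 Viability readouts were run alongside the GM3 cell-surface assay in the same B16 and C32 cultures. A figure above 10 indicates no cell death.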

C32 human melanoma cells = test: cell viability in the C32 cell-based assay (Viability, C32 IC50); conditions: Homo sapiens, C32, C32 cells; concentration causing 50% cell death; values greater than 10 represent a lack of cell death; read-out: Viability, C32 IC50
Outline: as §2

Structure (SMILES)	IC50 [1]	IC50 [2]	IC50 [3]	IC50 (B16 mouse melanoma cells)	IC50 (C32 human melanoma cells)
CC1(NC(=O)C2CCN(c3nccc(Oc4ccc(F)cc4)n3)CC2)CCN2CCC1CC2 (stereo not drawn) [Example 115, 1-(4-(4-Fluorophenoxy)pyrimidin-2-yl)-N-(4-methyl-1-azabicyclo[3.2.2]nonan-4-yl)piperidine-4-carboxamide]	2.45 nM	8.94 nM	0.14 nM	9300 nM	46.4 nM
CC1(NC(=O)C2(F)CCN(c3ncnc(Oc4ccc(F)cc4)n3)CC2)CCN2CCC1CC2 (stereo not drawn) [Example 117, 4-Fluoro-1-(4-(4-fluorophenoxy)-1,3,5-triazin-2-yl)-N-(4-methyl-1-azabicyclo[3.2.2]nonan-4-yl)piperidine-4-carboxamide]	168 nM	88.4 nM	9.05 nM	≥ 10000 nM	1000 nM
COCCOc1ccc(Oc2nc(N3CCC(F)(C(=O)NC4(C)CN5CCC4CC5)CC3)ncc2F)cc1 (stereo not drawn) [Example 118, 4-Fluoro-1-(5-fluoro-4-(4-(2-methoxyethoxy)phenoxy)pyrimidin-2-yl)-N-(3-methylquinuclidin-3-yl)piperidine-4-carboxamide]	2.54 nM	63.4 nM	1.16 nM	4640 nM	1000 nM
CC1(NC(=O)C2(F)CCN(c3nccc(Oc4ccc(C#N)cc4)n3)CC2)CN2CCC1CC2 (stereo not drawn) [Example 119, 1-(4-(4-Cyanophenoxy)pyrimidin-2-yl)-4-fluoro-N-(3-methylquinuclidin-3-yl)piperidine-4-carboxamide]	6.71 nM	54.4 nM	0.476 nM	≥ 10000 nM	316 nM
CC1(NC(=O)C2(F)CCN(c3ncc(C#N)c(Oc4ccc(F)cc4)n3)CC2)CN2CCC1CC2 (stereo not drawn) [Example 122, 1-(5-Cyano-4-(4-fluorophenoxy)pyrimidin-2-yl)-4-fluoro-N-(3-methylquinuclidin-3-yl)piperidine-4-carboxamide]	4.41 nM	112 nM	0.639 nM	≥ 10000 nM	316 nM
CC1(NC(=O)C2(F)CCN(c3nccc(OC4CCOCC4)n3)CC2)CCN2CCC1CC2 (stereo not drawn) [Example 123, 4-Fluoro-N-(4-methyl-1-azabicyclo[3.2.2]nonan-4-yl)-1-(4-((tetrahydro-2H-pyran-4-yl)oxy)pyrimidin-2-yl)piperidine-4-carboxamide]	42.3 nM	226 nM	2.26 nM	≥ 10000 nM	1000 nM
CC1(NC(=O)C2(F)CCN(c3nccc(OCc4ccc(F)cc4)n3)CC2)CN2CCC1CC2 (stereo not drawn) [Example 125, 4-Fluoro-1-(4-((4-fluorobenzyl)oxy)pyrimidin-2-yl)-N-(3-methylquinuclidin-3-yl)piperidine-4-carboxamide]	0.643 nM	17.7 nM	0.0509 nM	4290 nM	158 nM
CC1(NC(=O)C2(F)CCN(c3cncc(Oc4ccc(F)cc4)n3)CC2)CCN2CCC1CC2 (stereo not drawn) [Example 126, 4-Fluoro-1-(6-(4-fluorophenoxy)pyrazin-2-yl)-N-(4-methyl-1-azabicyclo[3.2.2]nonan-4-yl)piperidine-4-carboxamide]	1.57 nM	36 nM	0.726 nM	6260 nM	1000 nM
CC1(NC(=O)C2(F)CCN(c3ncnc(OCc4ccc(F)cc4)n3)CC2)CCN2CCC1CC2 (stereo not drawn) [Example 128, 4-Fluoro-1-(4-((4-fluorobenzyl)oxy)-1,3,5-triazin-2-yl)-N-(4-methyl-1-azabicyclo[3.2.2]nonan-4-yl)piperidine-4-carboxamide]	19.8 nM	654 nM	3.4 nM	≥ 10000 nM	1000 nM
CC1(NC(=O)C2(F)CCN(c3ncc(Oc4ccc(F)cc4)cn3)CC2)CN2CCC1CC2 (stereo not drawn) [Example 129, 4-Fluoro-1-(5-(4-fluorophenoxy)pyrimidin-2-yl)-N-(3-methylquinuclidin-3-yl)piperidine-4-carboxamide]	4.27 nM	97.8 nM	0.38 nM	8260 nM	316 nM
CC1(NC(=O)C2CCN(c3ncc(Oc4ccc(F)cc4)cn3)CC2)CCN2CCC1CC2 (stereo not drawn) [Example 130, 1-(5-(4-Fluorophenoxy)pyrimidin-2-yl)-N-(4-methyl-1-azabicyclo[3.2.2]nonan-4-yl)piperidine-4-carboxamide]	0.889 nM	16.9 nM	0.156 nM	5670 nM	316 nM
CC1(NC(=O)C2(F)CCN(c3cnc(Oc4ccc(F)cc4)cn3)CC2)CN2CCC1CC2 (stereo not drawn) [Example 133, 4-Fluoro-1-(5-(4-fluorophenoxy)pyrazin-2-yl)-N-(3-methylquinuclidin-3-yl)piperidine-4-carboxamide]	45.9 nM	467 nM	4.83 nM	≥ 10000 nM	1000 nM
CC1(NC(=O)C2(F)CCN(c3nccc(COc4ccc(F)cc4)n3)CC2)CN2CCC1CC2 (stereo not drawn) [Example 135, 4-Fluoro-1-(4-((4-fluorophenoxy)methyl)pyrimidin-2-yl)-N-(3-methylquinuclidin-3-yl)piperidine-4-carboxamide]	1.38 nM	31.7 nM	0.132 nM	8250 nM	46.4 nM
COCCOc1ccc(Cc2cnc(N3CCC(F)(C(=O)NC4(C)CN5CCC4CC5)CC3)nc2)cc1 (stereo not drawn) [Example 136]	7.9 nM	24.9 nM	0.716 nM	≥ 10000 nM	1000 nM
CC1CN(C(=O)NC2(C)CCN3CCC2CC3)CCN1c1nccc(-c2ccccc2)n1 (stereo not drawn) [Example 141, 3-Methyl-N-(4-methyl-1-azabicyclo[3.2.2]nonan-4-yl)-4-(4-phenylpyrimidin-2-yl)piperazine-1-carboxamide]	5.96 nM	209 nM	0.888 nM	4670 nM	316 nM

The next lines start with results.

IC50 [1]	IC50 [2]	IC50 [3]	Structure (SMILES)	IC50 (B16 mouse melanoma cells)	IC50 (C32 human melanoma cells)
1.43 nM	15.9 nM	0.155 nM	CC1(NC(=O)C2(F)CCN(c3nccc(Oc4ccc(F)cc4)n3)CC2)CCN2CCC1CC2 (stereo not drawn) [Example 116, 4-Fluoro-1-(4-(4-fluorophenoxy)pyrimidin-2-yl)-N-(4-methyl-1-azabicyclo[3.2.2]nonan-4-yl)piperidine-4-carboxamide]	5720 nM	100 nM
4.12 nM	18.8 nM	0.332 nM	CC1(NC(=O)C2(F)CCN(c3nccc(Oc4ccc(C#N)cc4)n3)CC2)CCN2CCC1CC2 (stereo not drawn) [Example 120, 1-(4-(4-Cyanophenoxy)pyrimidin-2-yl)-4-fluoro-N-(4-methyl-1-azabicyclo[3.2.2]nonan-4-yl)piperidine-4-carboxamide]	≥ 10000 nM	316 nM
0.553 nM	17.8 nM	0.0849 nM	CC1(NC(=O)C2(F)CCN(c3nccc(OCc4ccc(F)cc4)n3)CC2)CCN2CCC1CC2 (stereo not drawn) [Example 124, 4-Fluoro-1-(4-((4-fluorobenzyl)oxy)pyrimidin-2-yl)-N-(4-methyl-1-azabicyclo[3.2.2]nonan-4-yl)piperidine-4-carboxamide]	3420 nM	100 nM
2.27 nM	106 nM	0.569 nM	CC1(NC(=O)C2(F)CCN(c3cncc(Oc4ccc(F)cc4)c3)CC2)CCN2CCC1CC2 (stereo not drawn) [Example 127, 4-Fluoro-1-(5-(4-fluorophenoxy)pyridin-3-yl)-N-(4-methyl-1-azabicyclo[3.2.2]nonan-4-yl)piperidine-4-carboxamide]	6980 nM	316 nM
10.7 nM	115 nM	2.65 nM	CC1(NC(=O)C2(F)CCN(c3ncc(OCc4ccc(F)cc4)cn3)CC2)CCN2CCC1CC2 (stereo not drawn) [Example 132, 4-Fluoro-1-(5-((4-fluorobenzyl)oxy)pyrimidin-2-yl)-N-(4-methyl-1-azabicyclo[3.2.2]nonan-4-yl)piperidine-4-carboxamide]	4590 nM	1000 nM
14.5 nM	343 nM	2.83 nM	CC1(NC(=O)C2(F)CCN(c3ccc(Oc4ccc(F)cc4)nn3)CC2)CCN2CCC1CC2 (stereo not drawn) [Example 134, 4-Fluoro-1-(6-(4-fluorophenoxy)pyridazin-3-yl)-N-(4-methyl-1-azabicyclo[3.2.2]nonan-4-yl)piperidine-4-carboxamide]	≥ 10000 nM	1000 nM
